Results published in ChEMBL document CHEMBL1128157, “Stereochemical differentiation of anticonvulsant and antihypertensive effects in 4-(fluorobenzoylamino)-benzopyrans” (1995).

Each compound was assayed on Mus musculus (assay: Increase in threshold voltage (applied via a subcutaneous and a buccal electrode) for inducing tonic hind limb extension seizures in 50% (CV50) in mouse MEST model at a dose of 10 mg/kg orally). Settings: route oral.
Assay type: functional, Hindlimb
With `CC1(C)Oc2ccc(C#N)cc2[C@H](NC(=O)c2ccc(F)cc2)[C@H]1O` the Change was 41%. Compound `CC1(C)Oc2ccc(C#N)cc2[C@@H](NC(=O)c2ccc(F)cc2)[C@@H]1O` has a Change of 17%. `CC1(C)Oc2ccc(C#N)cc2C(NC(=O)c2ccccc2)[C@@H]1O` (stereo partly specified) gave a Change of 29%. `CC1(C)Oc2ccc(C#N)cc2[C@H](NC(=O)c2cccc(F)c2)[C@H]1O` was tested, and the Change was 50%. Work on `CC1(C)Oc2ccc(C#N)cc2[C@@H](NC(=O)c2cccc(F)c2)[C@@H]1O` yielded a Change of 12%. `CC(C)(C)c1ccc2c(c1)C(N1CCCC1=O)[C@H](O)C(C)(C)O2` (stereo partly specified) showed a Change of 12%. `CC1(C)C=C(N2CCCC2=O)c2cc(C#N)ccc2O1` showed a Change of 4%. For `CC1(C)Oc2ccc(C#N)cc2C(NC(=O)c2ccc(F)cc2)[C@@H]1O` (stereo partly specified), the Change was 49%.

The compounds below were run on Mus musculus (assay: Change in threshold voltage (applied via a subcutaneous and a buccal electrode) for inducing tonic hind limb extension seizures in 50% (CV50) in mouse MEST model at a dose of 10 mg/kg orally). Settings: route oral.
Assay type: functional, Hindlimb
`CC1(C)Oc2ccc(C(F)(F)F)cc2C(NC(=O)c2ccc(F)cc2)[C@@H]1O` (stereo partly specified) showed a Change of 33%. With `CC1(C)Oc2ccncc2C(NC(=O)c2ccc(F)cc2)[C@@H]1O` (stereo partly specified) the Change was 5%. `CC1(C)Oc2ccc(C#N)cc2C(N2CCCC2=O)C1O` (racemic) [CROMAKALIM] gave a Change of 4%.

These compounds were tested on Mus musculus (assay: Dose required to produce a 50% elevation in seizure threshold after oral administration). Settings: not given.
Assay type: functional
Compound `NC(=O)N1c2ccccc2C=Cc2ccccc21` [CARBAMAZEPINE] has an ED50 of 12.7 mg/kg. Compound `CCC1(c2ccccc2)C(=O)NC(=O)NC1=O` [PHENOBARBITAL] has an ED50 of 10.6 mg/kg.

What follows are compounds tested on Mus musculus (assay: Change in threshold voltage (applied via a subcutaneous and a buccal electrode) for inducing tonic hind limb extension seizures in 50% (CV50) in mouse MEST model at a dose of 10 mg/kg intraperitoneally 30 min pretest). Settings: not given.
Assay type: functional, Hindlimb
`CC1(C)Oc2ccc(C#N)cc2C(N2CCCC2=O)C1O` (racemic) [CROMAKALIM] was tested, and the Change was -16%.

Each compound was assayed on Mus musculus (assay: Change in threshold voltage (applied via a subcutaneous and a buccal electrode) for inducing tonic hind limb extension seizures in 50% (CV50) in mouse MEST model at a dose of 30 mg/kg orally). Settings: route oral.
Assay type: functional, Hindlimb
`CC1(C)Oc2ccc(-c3ccccc3)cc2C(NC(=O)c2ccc(F)cc2)[C@@H]1O` (stereo partly specified) showed a Change of 20%. `CN(C(=O)c1ccc(F)cc1)C1c2cc(C#N)ccc2OC(C)(C)[C@H]1O` (stereo partly specified) showed a Change of 26%. With `CC1(C)Oc2ccc(C#N)cc2C(NC(=O)c2ccc(C#N)cc2)[C@@H]1O` (stereo partly specified) the Change was 7%. `CC1(C)Oc2ccccc2C(NC(=O)c2ccc(F)cc2)[C@@H]1O` (stereo partly specified) gave a Change of 13%. For `CC(C)c1ccc2c(c1)C(NC(=O)c1ccc(F)cc1)[C@H](O)C(C)(C)O2` (stereo partly specified), the Change was 19%. `COc1ccc2c(c1)C(NC(=O)c1ccc(F)cc1)[C@H](O)C(C)(C)O2` (stereo partly specified) showed a Change of 28%. For `CC1(C)Oc2ccc(C#N)cc2C(NC(=O)c2ccc(O)cc2)[C@@H]1O` (stereo partly specified), the Change was -2%.
